Legend:
physchem [1] = test: physchem
Description: Compound was evaluated for pKa

Carbonic anhydrase [2] = test: Compound was evaluated for the inhibition of Carbonic anhydrase (Competitive); format: protein assay
[3] = buffer, pH 7.2
Description: Solubility, pH 7.2 phosphate buffer at 32 degree C

physchem [4] = settings: octanol/pH 7.2 phosphate buffer
Description: Compound was evaluated for Octanol/pH 7.2 phosphate buffer distribution coefficient

Oryctolagus cuniculus [5] = test: Compound was evaluated for the intraocular pressure (IOP) in normal rabbits following topical dosing after 40 min; format: functional, Eye
Oryctolagus cuniculus [6] = test: Compound was evaluated for the intraocular pressure (IOP) in normal rabbits following topical dosing after 160 min; format: functional, Eye
Oryctolagus cuniculus [7] = test: Compound was evaluated for the intraocular pressure (IOP) in normal rabbits following topical dosing after 180 min; format: functional, Eye
Oryctolagus cuniculus [8] = test: Compound was evaluated for the intraocular pressure (IOP) in normal rabbits following topical dosing after 140 min; format: functional, Eye
Oryctolagus cuniculus [9] = test: Compound was evaluated for the intraocular pressure (IOP) in normal rabbits following topical dosing after 80 min; format: functional, Eye
Oryctolagus cuniculus [10] = test: Compound was evaluated for the intraocular pressure (IOP) in normal rabbits following topical dosing after 120 min; format: functional, Eye
Carbonic anhydrase [11] = target: Carbonic anhydrase
Oryctolagus cuniculus [12] = test: Compound was evaluated for the intraocular pressure (IOP) in normal rabbits following topical dosing after 60 min; format: functional, Eye
Oryctolagus cuniculus [13] = test: Compound was evaluated for the intraocular pressure (IOP) in normal rabbits following topical dosing after 100 min; format: functional, Eye
Oryctolagus cuniculus [14] = test: Compound was evaluated for the intraocular pressure (IOP) in normal rabbits following topical dosing after 20 min; format: functional, Eye
Oryctolagus cuniculus [15] = test: Compound was evaluated for the intraocular pressure (IOP) in normal rabbits following topical dosing after 10 min; format: functional, Eye
Oryctolagus cuniculus [16] = test: Compound was evaluated for the intraocular pressure (IOP) in normal rabbits following topical dosing after 90 min; format: functional, Eye
Oryctolagus cuniculus [17] = test: Compound was evaluated for the intraocular pressure (IOP) in normal rabbits following topical dosing after 70 min; format: functional, Eye
Oryctolagus cuniculus [18] = test: Compound was evaluated for the intraocular pressure (IOP) in normal rabbits following topical dosing after 30 min; format: functional, Eye
Oryctolagus cuniculus [19] = test: Compound was evaluated for the intraocular pressure (IOP) in normal rabbits following topical dosing after 110 min; format: functional, Eye
Oryctolagus cuniculus [20] = test: Compound was evaluated for the intraocular pressure (IOP) in normal rabbits following topical dosing after 50 min; format: functional, Eye

Structure (SMILES)	Papp [×10⁻⁶ cm/s]	pKa (physchem [1])	Solubility [3] [M l-1]	logD (physchem [4])	Ki (Carbonic anhydrase [11]) [µM]	IOP (Oryctolagus cuniculus [5]) [mmHg]	IOP (Oryctolagus cuniculus [9]) [mmHg]	IOP (Oryctolagus cuniculus [10]) [mmHg]	IOP (Oryctolagus cuniculus [12]) [mmHg]	IOP (Oryctolagus cuniculus [13]) [mmHg]	IOP (Oryctolagus cuniculus [14]) [mmHg]	further results
CNS(=O)(=O)c1nnc(NC(C)=O)s1	2.26	7.52	0.00144	0.32	–	–	–	–	–	–	–	Ki (Carbonic anhydrase [2]): 0.258 µM
CN(O)S(=O)(=O)c1ccc(Cl)cc1	–	–	–	–	0.107	1	0.17	0.33	-1.25	0.67	0.17	IOP (Oryctolagus cuniculus [6]): -0.25 mmHg; IOP (Oryctolagus cuniculus [7]): -0.25 mmHg; IOP (Oryctolagus cuniculus [8]): -0.33 mmHg
CN(O)S(=O)(=O)c1ccc([N+](=O)[O-])cc1	–	–	–	–	0.044	-1.67	-1.67	-1	-1.67	-0.5	-0.33	IOP (Oryctolagus cuniculus [15]): 0.33 mmHg; IOP (Oryctolagus cuniculus [16]): 0.2 mmHg; IOP (Oryctolagus cuniculus [17]): -2 mmHg; IOP (Oryctolagus cuniculus [18]): -0.67 mmHg; IOP (Oryctolagus cuniculus [19]): -0.33 mmHg; IOP (Oryctolagus cuniculus [20]): -1.83 mmHg
CNS(=O)(=O)c1ccc(Cl)cc1	65.1	11	0.0208	1.92	0.584	–	–	–	–	–	–	–

The next lines start with results.

Papp [×10⁻⁶ cm/s]	pKa (physchem [1])	Solubility [3] [M l-1]	logD (physchem [4])	Ki (Carbonic anhydrase [11]) [µM]	Structure (SMILES)	IOP (Oryctolagus cuniculus [5]) [mmHg]	IOP (Oryctolagus cuniculus [9]) [mmHg]	IOP (Oryctolagus cuniculus [10]) [mmHg]	IOP (Oryctolagus cuniculus [12]) [mmHg]	IOP (Oryctolagus cuniculus [13]) [mmHg]	IOP (Oryctolagus cuniculus [14]) [mmHg]	further results
54.7	9.95	0.0223	1.24	–	NS(=O)(=O)c1ccc(Cl)cc1 [P-CHLOROBENZENESULFONAMIDE]	–	–	–	–	–	–	–
–	–	–	–	0.146	CNS(=O)(=O)c1ccc([N+](=O)[O-])cc1	–	–	–	–	–	–	–

Reference: ChEMBL document CHEMBL1123344, “N-Substituted sulfonamide carbonic anhydrase inhibitors with topical effects on intraocular pressure” (J Med Chem, 1986)
